This passage reports ED50, IC50 and EC50 results from ChEMBL document CHEMBL1136833, “Novel non-peptide inhibitors targeting death receptor-mediated apoptosis” (Bioorg Med Chem Lett, 2003).

Assay [1] relates to Jurkat. The experiment in a line: Effective dose to inhibit FasL-induced apoptosis in Jurkat cells (Type II); NE=no effect. Conditions: Homo sapiens. The class given is functional, cell-based.
Assay [2] deals with SKW 6.4. Put plainly: Cytotoxicity against SK W6.4 cell growth (Type I). The class given is functional, cell-based. Conditions: Homo sapiens.
Assay [3] deals with SKW 6.4. Put plainly: Effective dose to inhibit FasL-induced apoptosis in SK W6.4 cells (Type I). In kind it is functional. Conditions: Homo sapiens, read-out: ED50 (the source's name).
The test system of assay [4] is Jurkat. The experiment in a line: Cytotoxicity against Jurkat cell growth (Type II). The class given is functional, cell-based. Conditions: Homo sapiens.
For assay [5], the system named is SKW 6.4. Put plainly: Effective dose to inhibit staurosporine-induced apoptosis in SK W6.4 cells (Type I); NE=no effect. Conditions: Homo sapiens. In kind it is functional, cell-based.
The test system of assay [6] is Jurkat. The experiment in a line: Effective dose to inhibit staurosporine-induced apoptosis in Jurkat cells (Type II); NE=no effect. The class given is functional, cell-based. Conditions: Homo sapiens.
In assay [7] the test system is Jurkat. Put plainly: Effective dose to inhibit FasL-induced apoptosis in Jurkat cells (Type II). In kind it is functional. Conditions: Homo sapiens, read-out: ED50 (the source's name).
Assay [8] has as its system SKW 6.4. Put plainly: Effective dose to inhibit staurosporine-induced apoptosis in SK W6.4 cells (Type I). The class given is functional. Conditions: Homo sapiens, read-out: ED50 (the source's name).
Assay [9] has as its system Jurkat. The experiment in a line: Effective dose to inhibit staurosporine-induced apoptosis in Jurkat cells (Type II). Conditions: Homo sapiens, read-out: ED50 (the source's name). The class given is functional.
The test system of assay [10] is SKW 6.4. The experiment in a line: Effective dose to inhibit FasL-induced apoptosis in SK W6.4 cells (Type I); NE=no effect. Conditions: Homo sapiens. The class given is functional, cell-based.

Active and inactive are the calls of the source. No cut-off for these calls is given here.

In the case of `CCCC/C=C/C1=C(CO)[C@H](O)[C@H]2O[C@H]2C1=O`, the ED50 result with Jurkat [1], in the assay with SKW 6.4 [5] and in the assay with Jurkat [6] was “inactive” throughout. In addition, the IC50 in the assay with SKW 6.4 [2] is 35 µM; with Jurkat [4], 15 µM. Besides, in the assay on SKW 6.4 [3], the EC50 came out at 10 µM.
As to `C/C=C(\C)C1=C(CO)[C@H](O)[C@H]2O[C@H]2C1=O`, the IC50 in the assay with SKW 6.4 [2] and in the assay on Jurkat [4] was more than 80 µM each time. Further, the EC50 in the assay on SKW 6.4 [3] is 10 µM; in the assay with Jurkat [7], 10 µM; in the assay with SKW 6.4 [8] it was more than 80 µM; with Jurkat [9], more than 80 µM.
On to `O=C1C(/C=C/c2ccccc2)=C(CO)[C@H](O)[C@H]2O[C@@H]12`, for which the ED50 result with Jurkat [1], in the assay on SKW 6.4 [10], in the assay with SKW 6.4 [5] and in the assay with Jurkat [6] was “inactive” throughout. In addition, the values for the 50% inhibitory concentration (IC50) with SKW 6.4 [2] and with Jurkat [4] were 30 µM and 20 µM, respectively.
Consider `C/C=C/C1=C(CO)[C@@H](O)[C@@H]2O[C@@H]2C1=O`, for which the IC50 in the assay on SKW 6.4 [2] was determined as 80 µM; in the assay with Jurkat [4], 60 µM. The EC50 is 20 µM with SKW 6.4 [3], 25 µM in the assay on Jurkat [7], more than 80 µM in the assay with SKW 6.4 [8] and more than 80 µM in the assay on Jurkat [9].
In the case of `C/C=C/C1=C(CO)C(=O)[C@H]2O[C@H]2C1=O`, the ED50 result in the assay with Jurkat [1], in the assay on SKW 6.4 [10], with SKW 6.4 [5] and in the assay with Jurkat [6] was “inactive” each time. For the same molecule, the half-maximal inhibitory concentration (IC50) in the assay with SKW 6.4 [2] amounted to 9 µM; with Jurkat [4], 8 µM.
As to `CCCC/C=C/C1=C(CO)C(=O)[C@H]2O[C@H]2C1=O`, the ED50 entry in the assay with Jurkat [1], in the assay on SKW 6.4 [10], in the assay with SKW 6.4 [5] and in the assay with Jurkat [6] was “inactive” throughout. Also, the IC50 is 7 µM in the assay on SKW 6.4 [2] and 10 µM with Jurkat [4].
For the molecule `O=C1C=C(CO)[C@H](O)[C@H]2O[C@@H]12`, the half-inhibitory concentration (IC50) with SKW 6.4 [2] and with Jurkat [4] was more than 80 µM in each case. For the same molecule, the EC50 was 10 µM in the assay with SKW 6.4 [3], 18 µM in the assay with Jurkat [7], more than 80 µM in the assay with SKW 6.4 [8] and more than 80 µM in the assay on Jurkat [9].
Consider `C/C=C/C1=C(CO)[C@H](O)[C@H]2O[C@H]2C1=O`, for which the 50% inhibitory concentration (IC50) with SKW 6.4 [2] and with Jurkat [4] was more than 80 µM throughout. Besides, the EC50 is 5 µM with SKW 6.4 [3], 6 µM in the assay with Jurkat [7], more than 80 µM with SKW 6.4 [8] and more than 80 µM with Jurkat [9].
In the case of `C=CC1=C(CO)[C@H](O)[C@H]2O[C@H]2C1=O`, the IC50 in the assay with SKW 6.4 [2] and in the assay with Jurkat [4] was more than 80 µM each time. The EC50 in the assay with SKW 6.4 [3] was 4 µM; in the assay on Jurkat [7], 6 µM; in the assay with SKW 6.4 [8], more than 80 µM; with Jurkat [9], more than 80 µM.
Consider `C/C=C/C1=C(CO)[C@H](OC)[C@H]2O[C@H]2C1=O`, for which the IC50 in the assay with SKW 6.4 [2] and with Jurkat [4] was more than 80 µM throughout. The EC50 with SKW 6.4 [3] is 20 µM; in the assay with Jurkat [7], 25 µM; in the assay with SKW 6.4 [8] it was more than 80 µM; with Jurkat [9], more than 80 µM.
